Results as given in patent publication US20120088737A2, “NOVEL ACYL GUANIDINE DERIVATIVES” (AJINOMOTO CO., INC, priority 2009, published 2012).

Legend:
[1] = target: T1, NHE1 (Homo sapiens, UniProt P19634); assay: Measurements of NHE1 inhibitory activities (HLF cells, BCECF pH recovery); type: cell-based; details: HLF cells (human hepatoma cell line), measured after 10 minutes; read-out: hNHE1 IC50
T1 construct: HLF cells (Human hepatoma cell line) were used as cells for the test; endogenous in cells; host or cells: HLF cells (human hepatoma cell line)
Description: Pharmacological Test Example 1: Measurements of NHE1 Inhibitory Activities
HLF cells (Human hepatoma cell line) were used as cells for the test. After 1×10^4 cells/well were seeded to a 96-well plate and cultured for 3 days, they were cultured overnight under a serum-free medium. Then, the cells were incubated in a stain solution of Tetramethylammonium (TMA) Buffer (130 mM TMA-C1, 5 mM KCl, 2 mM CaCl2, 1 mM MgSO2, 25 mM glucose, 20 mM HEPES; pH 7.4) containing 40 mM NH4Cl and 1 μg/mL pH-sensitive fluorescent indicator BCECF-AM at 37° C. for 40 minutes and then BCECF was introduced into the cells. After the cells were washed once with TMA Buffer and incubated in TMA+40 mM NH4Cl solution at 37° C. for 15 minutes, the solution was removed and 20 μL/well of TMA Buffer and 10 μL/well of each test compound solution prepared with TMA Buffer were added to each well. The measurements were carried out by adding 200 μL/well of Na Buffer (130 mM, NaCl, 5 mM KCl, 2 mM CaCl2, 1 mM MgSO2, 1 mM NaH2PO4, 25 mM glucose, 20 mM HEPES; pH 7.4) or TMA Buffer (for base measurement), immediately placing it on FlexStation (Molecular Device) and then, after 10 minutes, measuring, it the two wavelengths of 505 nm (excitation wavelength)/530 nm (emission wavelength) (measurement value) and 440 nm (excitation wavelength)/530 nm (emission wavelength) (isosbestic point value). A NHE activity was calculated by dividing a measurement value by an isosbestic point value and a NHE1 inhibitory activity was calculated by the following equation. NHE1 inhibitory activity (%)=100×(1−(Measurement value [addition of each compound]−Base [addition of TMA Buffer])/(Control [addition of Na Buffer]−Base [addition of TMA Buffer]))

[2] = target: T2, human NHE3 (Homo sapiens, UniProt P48764); assay: Improved version of measurements of NHE3 inhibitory activities (OK26 ND cell lines); type: cell-based; details: OK26 ND cell lines (opNHE1 expression reduced by 90%), measurement time 8 minutes at 26° C.; read-out: hNHE3 IC50
T2 construct: expressed in transfected cells; host or cells: OK26 cells (opossum kidney OK cells); OK26 ND sublines with opNHE1 reduced by 90% for A3
T2 sequence (P48764 26-834): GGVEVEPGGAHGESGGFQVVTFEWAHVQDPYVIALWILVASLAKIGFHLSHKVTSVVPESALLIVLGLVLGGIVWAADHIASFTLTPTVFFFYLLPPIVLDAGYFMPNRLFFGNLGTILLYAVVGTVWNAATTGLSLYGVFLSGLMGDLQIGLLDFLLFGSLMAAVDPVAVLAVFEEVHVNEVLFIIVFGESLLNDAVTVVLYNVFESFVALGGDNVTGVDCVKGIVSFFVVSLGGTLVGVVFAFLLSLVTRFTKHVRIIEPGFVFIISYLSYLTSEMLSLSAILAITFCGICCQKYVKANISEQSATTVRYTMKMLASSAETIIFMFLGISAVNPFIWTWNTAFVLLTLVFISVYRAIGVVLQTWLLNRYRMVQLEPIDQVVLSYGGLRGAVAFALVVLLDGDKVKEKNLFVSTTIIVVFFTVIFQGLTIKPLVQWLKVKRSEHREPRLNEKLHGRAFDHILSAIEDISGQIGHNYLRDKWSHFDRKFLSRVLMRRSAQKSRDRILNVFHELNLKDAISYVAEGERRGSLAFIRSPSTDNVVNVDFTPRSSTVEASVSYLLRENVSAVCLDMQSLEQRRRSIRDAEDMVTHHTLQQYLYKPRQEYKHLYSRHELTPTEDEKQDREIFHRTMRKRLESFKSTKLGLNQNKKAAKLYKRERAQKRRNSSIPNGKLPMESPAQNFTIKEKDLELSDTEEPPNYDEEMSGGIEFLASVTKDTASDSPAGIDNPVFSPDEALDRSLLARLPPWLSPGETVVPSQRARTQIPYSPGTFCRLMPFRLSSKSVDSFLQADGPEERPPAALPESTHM
Description: Pharmacological Test Example 3: Improved Version of Measurements of NHE3 Inhibitory Activities
OK26 cells express endogeneous NHE1 (opNHE1). In order to evaluate NHE3 inhibitory activities more precisely, OK26 ND cell lines in which the expression level of opNHE1 is reduced by 90% were established. Measurements of NEE inhibitory activities were carried out by using the established cell lines in the same manner as described in Pharmacological Test Example 1 except that the measurement time was 8 minutes (at 26° C.) to calculate more precise NHE3 inhibitory activities.

T1 sequence (P19634 whole entry): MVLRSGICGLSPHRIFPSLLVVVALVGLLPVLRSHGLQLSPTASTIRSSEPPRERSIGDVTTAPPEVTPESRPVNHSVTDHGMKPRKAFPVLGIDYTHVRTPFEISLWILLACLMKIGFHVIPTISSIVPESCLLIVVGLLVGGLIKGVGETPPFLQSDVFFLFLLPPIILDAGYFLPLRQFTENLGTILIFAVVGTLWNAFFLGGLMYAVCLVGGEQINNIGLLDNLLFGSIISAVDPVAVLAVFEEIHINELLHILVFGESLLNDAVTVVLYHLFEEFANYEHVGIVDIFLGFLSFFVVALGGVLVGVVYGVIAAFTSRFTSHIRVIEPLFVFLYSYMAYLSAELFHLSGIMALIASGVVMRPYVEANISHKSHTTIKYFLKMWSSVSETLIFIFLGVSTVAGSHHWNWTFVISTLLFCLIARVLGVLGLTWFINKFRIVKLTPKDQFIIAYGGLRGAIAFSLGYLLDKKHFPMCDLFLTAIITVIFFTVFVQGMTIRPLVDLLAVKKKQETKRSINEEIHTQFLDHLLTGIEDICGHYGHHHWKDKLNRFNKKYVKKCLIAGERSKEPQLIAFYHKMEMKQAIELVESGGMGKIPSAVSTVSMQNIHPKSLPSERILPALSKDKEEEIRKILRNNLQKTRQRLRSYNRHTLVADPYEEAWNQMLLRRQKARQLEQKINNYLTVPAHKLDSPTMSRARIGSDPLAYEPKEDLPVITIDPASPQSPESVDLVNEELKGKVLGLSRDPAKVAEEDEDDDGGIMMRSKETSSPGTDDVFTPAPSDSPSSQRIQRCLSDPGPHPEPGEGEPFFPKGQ

| SMILES | IC50 [1] | IC50 [2] |
| --- | --- | --- |
| C/C(=C\c1ccc(Oc2ccc(S(N)(=O)=O)cc2)cc1-c1ccc(O)cc1)C(=O)NC(=N)N [Example 65, 4-[(E)-6-(3-guanidino-2-methyl-3-oxo-propenyl)-4′-hydroxy-biphenyl-3-yloxy]-benzenesulfonamide] | 1.5 µM | 0.21 µM |
| C/C(=C\c1ccc(-c2ccc(CO)cc2)cc1)C(=O)NC(=N)N [Example 93] | – | 0.25 µM |
| C/C(=C\c1cccc(C)c1-c1cccc(O)c1)C(=O)NC(=N)N [Example 68, N-[(E)-3-(3′-hydroxy-6-methyl-biphenyl-2-yl)-2-methyl-acryloyl]-guanidine] | 1.7 µM | 0.12 µM |
| COc1cc(-c2cc(C)ccc2/C=C(\C)C(=O)NC(=N)N)ccc1O [Example 66, N-[(E)-3-(4′-hydroxy-3′-methoxy-5-methyl-biphenyl-2-yl)-2-methyl-acryloyl]-guanidine] | – | 0.13 µM |
| C/C(=C\c1ccccc1-c1ccc(O)cc1F)C(=O)NC(=N)N [Example 59, N-[(E)-3-(2′-fluoro-4′-hydroxy-biphenyl-2-yl)-2-methyl-acryloyl]-guanidine] | 3.2 µM | 0.28 µM |
| COc1ccc(/C=C(\C)C(=O)NC(=N)N)c(-c2ccc(O)cc2)c1 [Example 73, N-[(E)-3-(4′-hydroxy-5-methoxy-biphenyl-2-yl)-2-methyl-acryloyl]-guanidine] | – | 0.12 µM |
| C/C(=C\c1ccc(-c2cc(C)c(O)c(C)c2)cc1-c1cc(C)c(O)c(C)c1)C(=O)NC(=N)N [Example 75, N-[(E)-3-(2,4-di(3,5-dimethyl-4-hydroxyphenyl)-phenyl)-2-methyl-acryloyl]-guanidine] | 1.8 µM | 0.1 µM |
| C/C(=C\c1c(F)cccc1-c1ccc(O)cc1)C(=O)NC(=N)N [Example 82, N-[(E)-3-(3-fluoro-4′-hydroxy-biphenyl-2-yl)-2-methyl-acryloyl]-guanidine] | 6.6 µM | 0.35 µM |
| C/C(=C\c1ccc(-c2ccc(O)cc2C)cc1)C(=O)NC(=N)N [Example 90, N-[(E)-3-(4′-hydroxy-2′-methyl-biphenyl-4-yl)-2-methyl-acryloyl]-guanidine] | – | 0.3 µM |
| C/C(=C\c1ccccc1-c1cccc(C(=O)NO)c1)C(=O)NC(=N)N [Example 55, (E)-2′-(3-guanidino-2-methyl-3-oxo-propenyl)-biphenyl-3-carboxylic acid hydroxyamide] | 2.9 µM | 0.44 µM |
| C/C(=C\c1ccc(Oc2ccc(O)cc2)cc1-c1ccc(O)cc1)C(=O)NC(=N)N [Example 71, N-{(E)-3-[4′-hydroxy-5-(4-hydroxy-phenoxy)-biphenyl-2-yl]-2-methyl-acryloyl}-guanidine] | 1.3 µM | 0.13 µM |
| C/C(=C\c1c(-c2ccc(O)cc2)cccc1-c1ccc(O)cc1)C(=O)NC(=N)N [Example 80, N-[(E)-3-(4,4″-dihydroxy-[1,1′;3′,1″]terphenyl-2′-yl)-2-methyl-acryloyl]-guanidine] | 7.7 µM | 0.2 µM |
| C/C(=C\c1ccccc1-c1ccc(O)c(C)c1)C(=O)NC(=N)N [Example 61, N-[(E)-3-(4′-hydroxy-3′-methyl-biphenyl-2-yl)-2-methyl-acryloyl]-guanidine] | 4.3 µM | 0.4 µM |
| C/C(=C\c1ccc(C(F)(F)F)cc1-c1ccc(O)cc1)C(=O)NC(=N)N [Example 81, N-[(E)-3-(4′-hydroxy-5-trifluoromethyl-biphenyl-2-yl)-2-methyl-acryloyl]-guanidine] | 5.2 µM | 0.63 µM |
| C/C(=C\c1ccc(Oc2ccc(S(N)(=O)=O)cc2)cc1-c1cccc(O)c1)C(=O)NC(=N)N [Example 64, 4-[(E)-6-(3-guanidino-2-methyl-3-oxo-propenyl)-3′-hydroxy-biphenyl-3-yloxy]-benzenesulfonamide] | 1.3 µM | 0.15 µM |
| C/C(=C\c1ccc(-c2ccoc2)cc1)C(=O)NC(=N)N [Example 85, N-[(E)-3-(4-furan-3-yl-phenyl)-2-methyl-acryloyl]-guanidine] | – | 0.47 µM |
| C/C(=C\c1ccccc1-c1ccc(CO)cc1)C(=O)NC(=N)N [Example 6, N-[(E)-3-(4′-hydroxymethyl-biphenyl-2-yl)-2-methyl-acryloyl]-guanidine] | – | 0.4 µM |

Further lines, results first:

| IC50 [1] | IC50 [2] | SMILES |
| --- | --- | --- |
| 2.9 µM | 0.74 µM | C/C(=C\c1ccccc1-c1ccc(O)cc1O)C(=O)NC(=N)N [Example 53, N-[(E)-3-(2′,4′-hydroxy-2-yl)-2-methyl-acryloyl]-guanidine] |
| 9.9 µM | 0.33 µM | C/C(=C\c1ccc(C)cc1-c1ccc(F)c(O)c1)C(=O)NC(=N)N [Example 63, N-[(E)-3-(4′-fluoro-3′-hydroxy-5-methyl-biphenyl-2-yl)-2-methyl-acryloyl]-guanidine] |
| 0.58 µM | 0.1 µM | C/C(=C\c1ccc(C)cc1-c1ccc(O)c(O)c1)C(=O)NC(=N)N [Example 69, N-[(E)-3-(3′,4′-dihydroxy-5-methyl-biphenyl-2-yl)-2-methyl-acryloyl]-guanidine] |
| 0.91 µM | 0.31 µM | C/C(=C\c1ccccc1-c1ccc(O)cc1Cl)C(=O)NC(=N)N [Example 60, N-[(E)-3-(2′-chloro-4′-hydroxy-biphenyl-2-yl)-2-methyl-acryloyl]-guanidine] |
| 5.2 µM | 0.7 µM | C/C(=C\c1ccc(C)cc1-c1ccc(C(=N)N)c(F)c1)C(=O)NC(=N)N [Example 79, (E)-3-fluoro-2′-(3-guanidino-2-methyl-3-oxo-propenyl)-5′-methyl-biphenyl-4-carboxamidine] |
| 2.2 µM | 0.54 µM | C/C(=C\c1ccccc1-c1cscc1C)C(=O)NC(=N)N [Example 83, N-{(E)-2-methyl-3-[2-(4-methyl-thiophene-3-yl)-phenyl]-acryloyl}-guanidine] |
| – | 0.19 µM | C/C(=C\c1ccc(-c2cc(O)ccc2F)cc1)C(=O)NC(=N)N [Example 91, N-[(E)-3-(2′-fluoro-5′-hydroxy-biphenyl-4-yl)-2-methyl-acryloyl]-guanidine] |
| – | 0.96 µM | C/C(=C\c1c(Br)cccc1-c1ccc(O)cc1)C(=O)NC(=N)N [Example 70, N-[(E)-3-(3-bromo-4′-hydroxy-biphenyl-2-yl)-2-methyl-acryloyl]-guanidine] |
| – | 0.15 µM | C/C(=C\c1ccc(-c2ccc(O)c(O)c2)cc1)C(=O)NC(=N)N [Example 92, N-[(E)-3-(3′,4′-dihydroxy-biphenyl-4-yl)-2-methyl-acryloyl]-guanidine] |
| – | 0.24 µM | C/C(=C\c1ccc(-c2ccc(O)cc2)cc1C)C(=O)NC(=N)N [Example 95, N-[(E)-3-(4′-hydroxy-3-methyl-biphenyl-4-yl)-2-methyl-acryloyl]-guanidine] |
| – | 0.2 µM | C/C(=C\c1ccc(-c2ccc(O)cc2C)cc1C)C(=O)NC(=N)N [Example 96, N-[(E)-3-(4′-hydroxy-3,2′-dimethyl-biphenyl-4-yl)-2-methyl-acryloyl]-guanidine] |
